Laboratory results taken from US11307205B2, “Non-radioactive cytotoxicity assays” (University of Southern California, priority 2016, dated 2022).

Columns and labels:
K562 cells = assay: Matador assay, death of K562 reporter cells induced by Digitonin or lytic reagent; format: cell-based
HEL-92-1-17 cells = assay: Matador assay, Digitonin-induced death of HEL cells expressing a luciferase reporter; format: cell-based; settings: Digitonin 30 μg/ml, 1 hour
Experimental: A 100× stock solution of native coelenterazine (CTZ; Nanolight, cat #303) was made by dissolving 1 mg of lyophilized CTZ powder in 1.1 ml of 100% Methanol supplemented with 30 μl of 6N HCl to avoid oxidation of CTZ with time. To make CTZ assay buffer, the 100× stock solution of CTZ was diluted to 0.5× concentration in PBS. Unless indicated otherwise, a total volume of 15 μl of the CTZ assay buffer (as prepared above) was added using an auto-injector to each well of a 384-well white plate (Greiner, 384 well white plate cat #781075) containing cells expressing the non-secretory form of a copepod luciferase in approximately 50-60 μl volume of medium and plates were read for luminescence in well-mode using BioTek synergyH4 plate reader. In the well-mode, an auto-injector or dispenser is used and assay buffer is added in one well, luminescence is read in that well, then the assay buffer is added to next well and luminescence is read in that well. Where indicated, assay was also conducted in the endpoint mode. In the endpoint mode, an autoinjector or dispenser is not used, the assay buffer is added in all wells manually using a pipette and then luminescence is read in all wells of the plate. For 96 well plates, cells were plated in 200 μl of media and approximately 50 μl of 0.5×CTZ assay buffer was added. […]

SMILES: C[C@@H]1CC[C@@]2(OC1)O[C@H]1[C@@H](O)[C@H]3[C@@H]4CC[C@H]5C[C@@H](O[C@@H]6O[C@H](CO)[C@H](O[C@@H]7O[C@H](CO)[C@@H](O)[C@H](O[C@@H]8OC[C@@H](O)[C@H](O)[C@H]8O)[C@H]7O[C@@H]7O[C@H](CO)[C@H](O)[C@H](O[C@@H]8O[C@H](CO)[C@@H](O)[C@H](O)[C@H]8O)[C@H]7O)[C@H](O)[C@H]6O)[C@H](O)C[C@]5(C)[C@H]4CC[C@]3(C)[C@H]1[C@@H]2C [Digitonin]
- MLuc7 activity (K562 cells; K562-MLuc7 (additional example), Digitonin 30 μg/ml, 1 cell/well to 10K cells/well): increase in MLuc7 activity
- MLuc7 activity (K562 cells; K562-MLuc7, Digitonin 1 hour, 1 cell/well to 400K cells/well): increase in MLuc7 activity
- NLuc luminescence in the supernatant (K562 cells; K562-NLuc, Digitonin 1 h, all three assay buffers): increase in luminescence
- TLuc activity (K562 cells; K562 cells expressing TurboLuc16, Digitonin 90 min): increase in TLuc activity
- FfLuc and GLuc activities (K562 cells; K562 cells expressing both GLuc and FfLuc, Digitonin 30 μg/ml, 90 minutes): increase in both FfLuc and GLuc activities
- LucPPe-146-1H2 activity (K562 cells; K562 cells stably expressing LucPPe-146-1H2, Digitonin 30 μg/ml): increase in LucPPe-146-1H2 activity
- NLuc activity (K562 cells; K562 cells stably expressing NLuc, Digitonin 30 μg/ml, 1 hour): increase in NLuc activity
- Renilla Luc activity (K562 cells; K562 cells stably expressing Renilla Luc, Digitonin 2 hours): increase in Renilla Luc activity
- Luc49-7C6A, Luc78-0B10, Luc133-IB2 and LucPpL-81-6G1 activities (K562 cells; K562 cells stably expressing these luciferases, Digitonin 30 μg/ml, example in present tense): increase in Luc49-7C6A, Luc78-0B10, Luc133-IB2 and LucPpL-81-6G1 activities
- LucPPe-146-1H2 and NLuc luminescence (K562 cells; K562 co-expressing both luciferases, Digitonin 30 μg/ml, 90 minutes, Dual-Luciferase Reporter Assay System): increase in both LucPPe-146-1H2 and NLuc luminescence
- LucPPe-146-1H2 and NLuc activities (K562 cells; K562 co-expressing both luciferases, Digitonin, measured in different wells with D-luciferin and CTZ assay buffers): increase in both LucPPe-146-1H2 and NLuc activities
- GLuc luciferase activity (HEL-92-1-17 cells; HEL-92-1-17 cells stably expressing GLuc, evident even in wells containing a single cell): increase in GLuc luciferase activity
- NLuc activity (HEL-92-1-17 cells; HEL-92-1-17 cells stably expressing NLuc): increase in NLuc activity
